Assay results taken from patent EP0561489A2, “Deodorant compositions containing materials for inhibiting bacterial adherence, method of use thereof, and method for determining materials that inhibit bacterial adherence” (THE MENNEN COMPANY, priority 1992, dated 1993).

Assays:
[1] = test system: adherence of aerobic diphtheroids to differentiated HE cells; assay: Inhibition of bacterial adherence to differentiated human epithelial cells; type: cell-based; settings: for inhibition of attachment of aerobic skin bacteria to differentiated HE cells (in words) / inhibition at 17000 µg/mL: 17 mg/ml final concentration; for inhibition at 17000 µg/mL: Homo sapiens, Epithelial cell
[2] = test system: adherence of aerobic diphtheroids to undifferentiated HE cells; assay: Inhibition of bacterial adherence to undifferentiated human epithelial cells; type: cell-based; settings: 17 mg/ml final concentration
Protocol: Skin microorganisms were isolated from the axillae of ten healthy human volunteers (male and female). Corynebacterium diphtheriae, Corynebacterium group J-K, and Escherichia coli 1677 were also obtained. The latter bacteria were included as controls for the adherence experiments. Microorganisms were maintained either by subculture on blood agar plates or trypticase soy agar base with 5% defibrinated sheep's blood. Stock cultures were frozen at -20°C in semi-solid trypticase soy agar for aerobes and chopped meat carbohydrate broth for anaerobes. For in vitro adherence assays the lipophilic corynebacteria were serially subcultured three times for periods of 24 hrs. in tryptose broth with 0.5% Tween-80.
Isolation of microorganisms from the axillae was performed by addition of 1 ml of a 0.1% Triton X-100 solution onto a sterile glass cylinder placed firmly on the skin in the axilla (total area 3.8cm²). […]
Human epithelial (HE) cells (primary culture from normal human epidermal keratinocytes) were used to assess the adherence of the axillary microorganisms. […] Differentiation of HE cells was induced by addition of calcium chloride (CaCl₂) to a concentration of 2 mM/L. Differentiation was assessed by mound formation (3 to 5 layers of cells) during tissue culture and by a modified Ayoub-Shklar's stain for differentiated epithelial cells. […]

[3] = test system: small colony diphtheroids; settings: human stratum corneum blended in physiological saline; U.S. Patent No. 4,518,517; cited from earlier work

Compound	effect on diphtheroid bacterial attachment to the skin sample (in words) [3]	other results
C[C@@H](O)[C@H](O)[C@H](O)[C@@H](O)C=O [fucose, D(+) fucose]		inhibition of attachment of aerobic skin bacteria to differentiated HE cells (in words) [1]: consistently able to inhibit attachment; inhibition of attachment of aerobic skin bacteria to undifferentiated HE cells (in words) [2]: consistently able to inhibit attachment
OC[C@H]1O[C@H](OC[C@H]2O[C@H](O[C@]3(CO)O[C@H](CO)[C@@H](O)[C@@H]3O)[C@H](O)[C@@H](O)[C@@H]2O)[C@H](O)[C@@H](O)[C@H]1O [raffinose]	a greater amount of bacteria attached to the skin than one treated with mannose	
OC[C@H]1O[C@@H](O[C@H]2[C@H](O)[C@@H](O)C(O)O[C@@H]2CO)[C@H](O)[C@@H](O)[C@H]1O (stereo partly drawn) [lactose]	a greater amount of bacteria attached to the skin than one treated with mannose	
C[C@H](O)[C@H](O)[C@@H](O)[C@@H](O)C=O [rhamnose]	a greater amount of bacteria attached to the skin than one treated with mannose	
OC[C@H]1O[C@H](O[C@H]2[C@H](O)[C@@H](O)[C@H](O)O[C@@H]2CO)[C@H](O)[C@@H](O)[C@@H]1O [maltose]	a greater amount of bacteria attached to the skin than one treated with mannose	
O=C[C@H](O)[C@@H](O)[C@@H](O)[C@H](O)CO [galactose, D(+) galactose]	neither galactose nor N-acetyl glucosamine had an effect	inhibition of attachment to differentiated epithelial cells (in words) [1]: poor capacity to inhibit attachment; inhibition at 17000 µg/mL [1]: 70 to 90%
OC[C@H]1O[C@@](CO)(O[C@H]2O[C@H](CO)[C@@H](O)[C@H](O)[C@H]2O)[C@@H](O)[C@@H]1O [Sucrose, sucrose, reference compound]	a greater amount of bacteria attached to the skin than one treated with mannose	inhibition at 17000 µg/mL [1]: -12.8 to 22.6%
O=C(CO)[C@@H](O)[C@H](O)[C@H](O)CO [fructose]	a greater amount of bacteria attached to the skin than one treated with mannose	
CC(=O)N[C@H]1C(O)O[C@H](CO)[C@@H](O)[C@@H]1O (stereo partly drawn) [NAGA, N-acetyl-D-glucosamine]	neither galactose nor N-acetyl glucosamine had an effect	inhibition of attachment of aerobic skin bacteria to differentiated HE cells (in words) [1]: consistently able to inhibit attachment; inhibition of attachment of aerobic skin bacteria to undifferentiated HE cells (in words) [2]: consistently able to inhibit attachment
